Tests used:
PKD = settings: reported values, no reference given; cited from earlier work
PKCα = molecular target: T1, PKCα (Homo sapiens, UniProt P17252); assay: In vitro radiometric PKC kinase assay; type: biochemical
T1 construct: purchased Cell Signaling Technology and Calbiochem
Description: (§1) The PKC in vitro kinase assays were performed as described previously.
(§2) To determine whether the novel analogs retained this specificity, we tested the compounds against their ability to inhibit PKCα, -βI, -δ, and CAMKIIα in in vitro radiometric kinase activity assays. All analogs were poor inhibitors of PKCα and PKCβI, with only slight (< 50%) inhibitory activity at 10 μM concentration (Fig. 5A and 5B).
(§3) Inhibition of PKCα (A), PKCβI (B), PKCδ (C), or CAMKIIα (D) by each of the 5 analogs was determined at 100 nM, 1 μM, and 10 μM concentrations. In the PKC assays, the potent PKC inhibitor GF109203X was used as a control. Data are the mean ± S.E.M. of three independent experiments. Statistical significance was determined using the unpaired t-test. ns, not statistically significant; *, p < 0.05; **, p < 0.01; ***, p < 0.001.

PKCβI = molecular target: T2, PKCβI (Homo sapiens, UniProt P05771); assay: In vitro radiometric PKC kinase assay; type: biochemical
T2 construct: purchased Cell Signaling Technology
T2 sequence (P05771 whole entry): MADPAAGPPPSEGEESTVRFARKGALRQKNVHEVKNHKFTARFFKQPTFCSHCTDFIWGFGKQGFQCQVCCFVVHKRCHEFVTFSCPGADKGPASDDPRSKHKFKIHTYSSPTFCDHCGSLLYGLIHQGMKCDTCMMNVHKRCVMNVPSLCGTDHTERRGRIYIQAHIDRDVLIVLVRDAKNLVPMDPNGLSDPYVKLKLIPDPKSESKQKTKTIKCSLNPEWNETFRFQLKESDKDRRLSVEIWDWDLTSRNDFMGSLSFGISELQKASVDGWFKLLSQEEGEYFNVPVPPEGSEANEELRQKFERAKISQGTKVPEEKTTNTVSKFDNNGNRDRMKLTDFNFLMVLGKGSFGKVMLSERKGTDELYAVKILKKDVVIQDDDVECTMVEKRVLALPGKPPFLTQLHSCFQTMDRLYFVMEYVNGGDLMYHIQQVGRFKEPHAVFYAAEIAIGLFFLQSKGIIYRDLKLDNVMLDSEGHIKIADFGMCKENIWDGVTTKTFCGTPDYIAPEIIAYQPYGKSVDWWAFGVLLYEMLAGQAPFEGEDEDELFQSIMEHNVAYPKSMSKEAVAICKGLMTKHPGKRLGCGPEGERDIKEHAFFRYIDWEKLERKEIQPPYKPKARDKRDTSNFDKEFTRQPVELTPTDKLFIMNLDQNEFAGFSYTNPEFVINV
Description: as §1, §2, §3

PKCδ = molecular target: T3, PKCδ (Homo sapiens, UniProt Q05655); assay: In vitro radiometric PKC kinase assay; type: biochemical
T3 construct: purchased Enzo Life Sciences
T3 sequence (Q05655 whole entry): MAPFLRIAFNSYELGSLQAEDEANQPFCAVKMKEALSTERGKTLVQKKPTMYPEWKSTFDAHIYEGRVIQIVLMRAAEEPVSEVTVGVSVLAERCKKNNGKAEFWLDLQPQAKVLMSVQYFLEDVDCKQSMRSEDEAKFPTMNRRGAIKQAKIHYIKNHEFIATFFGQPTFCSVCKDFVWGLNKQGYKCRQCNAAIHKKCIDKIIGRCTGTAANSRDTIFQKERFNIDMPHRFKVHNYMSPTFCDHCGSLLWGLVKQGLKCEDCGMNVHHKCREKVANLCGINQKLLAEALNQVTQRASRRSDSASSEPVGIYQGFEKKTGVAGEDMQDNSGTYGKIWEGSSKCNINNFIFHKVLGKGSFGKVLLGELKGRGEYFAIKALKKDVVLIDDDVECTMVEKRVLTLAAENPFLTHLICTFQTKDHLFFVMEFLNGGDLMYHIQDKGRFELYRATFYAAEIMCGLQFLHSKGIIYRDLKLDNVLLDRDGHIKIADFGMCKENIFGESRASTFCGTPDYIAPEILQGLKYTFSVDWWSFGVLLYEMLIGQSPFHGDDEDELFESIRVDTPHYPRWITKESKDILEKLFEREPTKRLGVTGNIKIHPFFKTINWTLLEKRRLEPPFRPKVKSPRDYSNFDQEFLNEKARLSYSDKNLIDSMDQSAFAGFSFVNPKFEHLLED
Description: as §1
To determine whether the novel analogs retained this specificity, we tested the compounds against their ability to inhibit PKCα, -βI, -δ, and CAMKIIα in in vitro radiometric kinase activity assays.
Inhibition of PKCα (A), PKCβI (B), PKCδ (C), or CAMKIIα (D) by each of the 5 analogs was determined at 100 nM, 1 μM, and 10 μM concentrations. […] Data are the mean ± S.E.M. of three independent experiments. Statistical significance was determined using the unpaired t-test. ns, not statistically significant; *, p < 0.05; **, p < 0.01; ***, p < 0.001.

Row | SMILES | IC50 (PKD) | inhibition of PKCα (in words) (PKCα) | inhibition of PKCβI (in words) (PKCβI) | inhibition of PKCδ (in words) (PKCδ)
1 | COC(=O)[C@@]1(O)C[C@H]2O[C@]1(C)n1c3ccccc3c3c4c(c5c6ccccc6n2c5c31)C(=O)NC4 [Compound K252a] | 7 nM | – | – | –
2 | CN(C)CCCn1cc(C2=C(c3c[nH]c4ccccc34)C(=O)NC2=O)c2ccccc21 [GF109203X] | – | strong inhibition | strong inhibition | strong inhibition
3 | Cn1c2ccccc2c2c3c(c4c5ccccc5n(CCC#N)c4c21)CNC3=O [Gö6976] | 20 nM | – | – | –
